Results published in patent US20210052882A1, “ENHANCED TREATMENT VOLUME AND SELECTIVE ABLATION USING ELECTROPORATION WITH ADJUVANT CALCIUM” (Virginia Tech Intellectual Properties, Inc., priority 2019, published 2021).
“And” between values parts separate entries of the source, which are not always exact repeats. Equal entries are not always repeated.

Experiments:
[1] = test system: U251 malignant glioma cells; assay: Reversible electroporation zone in collagen scaffolds imaged immediately after H-FIRE treatment; type: cell-based; details: for difference between reversible and irreversible electroporation areas: FIG. 10
Description: After pulsing, CaCl2, NaCl, KCl, and CaCl2/NaCl solutions were removed and cell culture media was added to each scaffold. For irreversible threshold experiments, the scaffolds were returned to the incubator for 24 hr prior to live/dead staining. For reversible threshold experiments, scaffolds were imaged immediately after treatment.
To visualize ablations, a live/dead stain was performed to visualize live and dead regions of cells in the scaffold. Scaffolds were incubated with 2 μM Calcein AM and 23 μM propidium iodide in phosphate buffered saline (PBS) for 30 minutes at room temperature. Scaffolds were then washed 2× with PBS prior to imaging using an inverted microscope (DMI 6000B, Leica Microsystems) with a 5× objective. Lesion areas were quantified for each treatment using a MATLAB algorithm. Since 24 h post treatment is sufficient to allow any reversibly electroporated cells to recover (as pore resealing happens on the order of minutes), staining the cells immediately after treatment and 24 h later allows for quantification of both the reversible zone of electroporation and irreversible zones of ablation.
To stain the scaffolds, media was removed and replaced with phosphate buffered saline (PBS) containing 2 μM Calcein AM (Invitrogen) and 23 μM PI (Invitrogen) and incubated at room temperature for 30 min. Scaffolds were then washed twice with PBS prior to imaging using an inverted microscope (DMI 6000B, Leica Microsystems) with a 5× objective, filter cubes, and an EM-CCD camera (Hamamatsu C9100). The appropriate filters were used to image Calcein AM (Ex:460-500, DC: 505, EM: 570-640) and propidium iodide (EX:545/26, DC:565, EM:605/70). To determine the reversible zone of electroporation, treatment followed the same electroporation protocol, but Calcein AM and PI were added to the CaCl2 and NaCl solutions at all steps prior to pulsing. Scaffolds were then imaged immediately after treatment.
Irreversible electroporation experiments were repeated 6-12 times for each condition. Reversible electroporation experiments were repeated at least six times. Discrepancies in the number of replicates between conditions were due to bubbles or other defects that may have changed the electric field distribution or prohibited a reliable measurement of ablation area. These scaffolds were excluded from analysis. Two-way ANOVA was used to test for differences in cell death area due to the different applied solutions and pulse waveforms. Tukey post-hoc comparisons were used to examine differences among treatment groups. Statistical analyses were performed with a confidence level of α=0.05 (MP Pro 14). Results are shown as means±standard deviation.
To investigate how CaCl2 and NaCl treatments affect permeabilization of the cells, the areas for reversible electroporation and their corresponding reversible electric field thresholds were characterized. Reversible electroporation thresholds for H-FIRE treatment have not been extensively characterized, making this work one of the first to quantify reversible thresholds for a range of unexplored pulse durations.

cells [2] = details: cited from earlier work
cells [3] = details: nsPEFs; cited from earlier work
[4] = test system: U251 malignant glioma cells; assay: Electric field threshold for cell death, ablation area mapped to finite element model
Description: For analysis, images were separated into two channels (green—Calcein AM, red—PI) and ablation areas for the green channel were analyzed for irreversible thresholds and red channels for reversible electroporation thresholds using a custom algorithm written in MATLAB. In cases where the algorithm was unable to accurately measure ablations, coordinate points from the algorithm outlining the ablation area were used as a guide to manually trace and measure the area in ImageJ. Ablation area measurements were mapped to a finite element model of the experimental setup to determine the corresponding electric field threshold.
Treatments were simulated using the finite element method (COMSOL Multiphysics, Burlington, Mass.) and the electric field and temperature distributions were determined. The mesh was refined until there was <1% change in the electric field and temperature values along a cutline between the electrodes. The mesh consisted of 102,615 total elements. […] From the finite element model of the collagen scaffold, a relationship between lesion area and electric field magnitude is determined by performing numerical integration on the surface of the scaffold for a range of electric field magnitudes (100-3000 V/cm). A curve was constructed and fit to the data using least squares fitting in MATLAB. […] This equation was used to accurately back out the electric field thresholds for each treatment condition without needing to manually determine them using COMSOL.
From the finite element model, it is possible to determine the electric field threshold required for cell death.
Using the finite element model of H-FIRE treatment in the scaffold, the corresponding electric field thresholds for each ablation area were characterized.

[5] = 450 V, 1 Hz, 100 μs; 80 pulses for IRE, 8 pulses for ECT; cited from earlier work
cells [6] = assay: Toxicity of calcium chloride to cells at the concentrations used; type: cell-based
[7] = Properties of solutions (conductivity, osmolarity); type: physicochemical; details: base 250 mM sucrose, 1 mM MgCl2, 10 mM HEPES, pH 7.2-7.4
Description: All solutions consisted of the same base ingredients: 250 mM sucrose, 1 mM MgCl2, and 10 mM HEPES buffer in deionized water with a pH in the range of 7.2-7.4. […] Cell culture media contains things such as serum and antibiotics that may affect results. Finally, fresh solutions were added immediately prior to pulsing. All solutions were adjusted to have a pH between 7.2-7.4.

[8] = test system: U251 malignant glioma cells; assay: H-FIRE ablation (lesion) area in collagen scaffolds, live/dead stain 24 hr after treatment; type: cell-based; details: for increase of ablation area compared to NaCl control / increase in ablation area compared to NaCl control: H-FIRE 800 V, 80 bursts
Description: U251 malignant glioma cells (Sigma Aldrich, 09063001) were maintained at 5% CO2 and 37° C. in Eagle's Minimum Essential Medium (Sigma Aldrich) supplemented with 1% penicillin/streptomycin (Life Technologies), 10% fetal bovine serum (Atlanta Biologicals), 1% non-essential amino acids (Sigma Aldrich) and 1 mM sodium pyruvate (Sigma Aldrich). Cells were routinely passaged at 80-90% confluence. […] PDMS wells were treated with 1% PEI (Acros Organics) for 10 min, 0.1% glutaraldehyde (Fisher Scientific) for 20 min, and then washed twice with deionized water prior to collagen seeding to ensure collagen adhesion during treatment. Commercial rat tail collagen type I (BD Biosciences) was neutralized using a solution of 10× Dulbecco's Modified Eagle Medium (10% total volume, Sigma Aldrich), 1 N NaOH (2% collagen volume, Sigma Aldrich), and 1× Dulbecco's Modified Eagle Medium (Sigma Aldrich) to a final concentration of 5 mg/mL. […] The collagen/cell solution was dispensed into PDMS wells and PDMS tops were used to mold the collagen flat while they polymerized in a cell culture incubator for 20 min. PDMS tops were then removed and cell culture media was added. Collagen scaffolds were maintained in the incubator for 24 hr prior to treatment. […] All solutions consisted of the same base ingredients: 250 mM sucrose, 1 mM MgCl2, and 10 mM HEPES buffer in deionized water with a pH in the range of 7.2-7.4. […] Cell culture media contains things such as serum and antibiotics that may affect results. Finally, fresh solutions were added immediately prior to pulsing. All solutions were adjusted to have a pH between 7.2-7.4. The osmolarity and conductivity of the buffers used are shown in Table 1: In this example, two hollow, stainless-steel needle electrodes (Howard electronics) were inserted into the scaffolds using a custom designed electrode housing. […] H-FIRE pulses were delivered using a high-voltage pulse generator (EPULSUS®-FBM1-5, EnergyPulse Systems, Lda). Voltage waveforms were captured using a high voltage probe and oscilloscope (DPO 2012, Tektronix). […] The pulses delivered were bipolar pulses having a positive pulse duration, inter-pulse delay, and negative pulse duration (see, e.g., FIG. 1B). Inter-pulse delay was kept constant (1 μs) while pulse width was varied (1, 2, 5, 10 μs). […] For reversible threshold experiments, scaffolds were imaged immediately after treatment. To visualize ablations, a live/dead stain was performed to visualize live and dead regions of cells in the scaffold. […] Scaffolds were then washed 2× with PBS prior to imaging using an inverted microscope (DMI 6000B, Leica Microsystems) with a 5× objective. Lesion areas were quantified for each treatment using a MATLAB algorithm. Since 24 h post treatment is sufficient to allow any reversibly electroporated cells to recover (as pore resealing happens on the order of minutes), staining the cells immediately after treatment and 24 h later allows for quantification of both the reversible zone of electroporation and irreversible zones of ablation. […] Scaffolds were then washed twice with PBS prior to imaging using an inverted microscope (DMI 6000B, Leica Microsystems) with a 5× objective, filter cubes, and an EM-CCD camera (Hamamatsu C9100). The appropriate filters were used to image Calcein AM (Ex:460-500, DC: 505, EM: 570-640) and propidium iodide (EX:545/26, DC:565, EM:605/70). […] Scaffolds were then imaged immediately after treatment. […] Reversible electroporation experiments were repeated at least six times. Discrepancies in the number of replicates between conditions were due to bubbles or other defects that may have changed the electric field distribution or prohibited a reliable measurement of ablation area. These scaffolds were excluded from analysis. Two-way ANOVA was used to test for differences in cell death area due to the different applied solutions and pulse waveforms. Tukey post-hoc comparisons were used to examine differences among treatment groups. […]

[Ca+2].[Cl-].[Cl-] [CaCl2, calcium chloride]
reversible zone larger than the 1 mM NaCl zone ([1]; 1 mM CaCl2, 2-1-2 waveform): 1.56 × | reversible zone larger than the 1 mM NaCl zone ([1]; 1 mM CaCl2, 5-1-5 waveform): 1.7 × | reversible zone larger than the 1 mM NaCl zone ([1]; 1 mM CaCl2, 10-1-10 waveform): 1.42 × | reversible zone larger than the 1 mM NaCl zone ([1]; 5 mM CaCl2, 2-1-2 waveform): 1.66 × | reversible zone larger than the 1 mM NaCl zone ([1]; 5 mM CaCl2, 5-1-5 waveform): 1.73 × | reversible zone larger than the 1 mM NaCl zone ([1]; 5 mM CaCl2, 10-1-10 waveform): 1.46 × | reversible zones larger than irreversible zones ([1]; 2-1-2 waveform, 1 mM): 2.62 × | reversible zones larger than irreversible zones ([1]; 2-1-2 waveform, 5 mM): 1.47 × | reversible zones larger than irreversible zones ([1]; 5-1-5 waveform, 1 mM): 1.67 × | reversible zones larger than irreversible zones ([1]; 5-1-5 waveform, 5 mM): 1.3 × | reversible zones larger than irreversible zones ([1]; 10-1-10 waveform, 1 mM): 1.32 × | reversible zones larger than irreversible zones ([1]; 10-1-10 waveform, 5 mM): 1.59 × | difference between reversible and irreversible electroporation areas [1]: decreased | difference between 1 mM and 5 mM treatments, reversible case ([1]; imaged immediately after treatment): no statistically significant difference | cell death, ECT pulses with calcium versus electroporation alone (cells [2]): more cell death | cellular ATP, ECT pulses with calcium versus electroporation alone (cells [2]): greater decrease | cell swelling and mode of cell death (cells [3]): experienced necrosis | reduction of electric field threshold compared to NaCl control ([4]; 1 mM, 1-1-1 waveform): 1.24 × | reduction of electric field threshold compared to NaCl control ([4]; 1 mM, 2-1-2 waveform): 1.48 × | reduction of electric field threshold compared to NaCl control ([4]; 1 mM, 2-2-2 waveform): 1.5 × | reduction of electric field threshold compared to NaCl control ([4]; 1 mM, 5-1-5 waveform): 2.05 × | reduction of electric field threshold compared to NaCl control ([4]; 1 mM, 5-5-5 waveform): 2.1 × | reduction of electric field threshold compared to NaCl control ([4]; 1 mM, 10-1-10 waveform): 2.2 × and 2.19 × | reduction of electric field threshold, 5 mM NaCl to 5 mM CaCl2 ([4]; 1-1-1 waveform): 1.46 × | reduction of electric field threshold, 5 mM NaCl to 5 mM CaCl2 ([4]; 2-1-2 waveform): 1.77 × and 1.91 × | reduction of electric field threshold, 5 mM NaCl to 5 mM CaCl2 ([4]; 5-1-5 waveform): 2.49 × and 2.43 × | reduction of electric field threshold, 5 mM NaCl to 5 mM CaCl2 ([4]; 10-1-10 waveform): 1.92 × and 1.83 × | electric field threshold ([4]; H-FIRE 10-1-10 waveform with calcium, concentration not given): 784±107 V/cm | electric field threshold ([4]; H-FIRE 10-1-10 waveform, 1 mM): 771±129 V/cm | electric field threshold ([4]; IRE treatment): 467±67 V/cm | lesion area for IRE or ECT treatment when CaCl2 is added [5]: greatly increased | toxicity to cells (cells [6]): non-toxic | Conductivity ([7]; 1 mM solution): 0.075 ± 0.004 S/m | Osmolarity ([7]; 1 mM solution): 289 mOsm/L | Conductivity ([7]; 5 mM solution): 0.131 S/m | Osmolarity ([7]; 5 mM solution): 300 mOsm/L | increase of ablation area compared to NaCl control ([8]; 1 mM, 1-1-1 waveform): ~2.3 × | increase of ablation area compared to NaCl control ([8]; 1 mM, 2-1-2 waveform): 4.4 × | increase of ablation area compared to NaCl control ([8]; 1 mM, 5-1-5 waveform): 6.1 × | increase of ablation area compared to NaCl control ([8]; 1 mM, 10-1-10 waveform): 3.42 × | increase in ablation area compared to NaCl control ([8]; 5 mM, 1-1-1 waveform): 3.4 × | increase in ablation area compared to NaCl control ([8]; 5 mM, 2-1-2 waveform): 4.37 × | increase in ablation area compared to NaCl control ([8]; 5 mM, 5-1-5 waveform): 5.24 × | increase in ablation area compared to NaCl control ([8]; 5 mM, 10-1-10 waveform): 2.66 × | lesion size compared with an IRE treatment without calcium ([8]; 5 mM, same applied energy, 2, 5 and 10 μs pulse widths): comparable in size or larger | ablation (lesion) sizes, calcium groups versus NaCl groups ([8]; H-FIRE, all pulse patterns): statistically significantly larger | 5 mM CaCl2 areas versus 1 mM CaCl2 areas ([8]; after 24 h, shorter pulse durations): larger

[Cl-].[K+] [KCl, potassium chloride]
Conductivity ([7]; 1 mM solution): 0.064 S/m | Osmolarity ([7]; 1 mM solution): 289 mOsm/L | ablation size relative to the NaCl control ([8]; 1 mM, H-FIRE): did not result in statistically significant ablation size

[Cl-].[Na+] [NaCl, sodium chloride, reference compound]
reversible areas, NaCl solutions versus CaCl2 counterparts ([1]; 1 mM and 5 mM, all waveforms): smaller reversible areas | reversible zones larger than irreversible zones ([1]; 2-1-2 waveform, 1 mM): 4.68 × | reversible zones larger than irreversible zones ([1]; 2-1-2 waveform, 5 mM): 3.88 × | reversible zones larger than irreversible zones ([1]; 5-1-5 waveform, 1 mM): 5.58 × | reversible zones larger than irreversible zones ([1]; 5-1-5 waveform, 5 mM): 3.94 × | reversible zones larger than irreversible zones ([1]; 10-1-10 waveform, 1 mM): 3.17 × | reversible zones larger than irreversible zones ([1]; 10-1-10 waveform, 5 mM): 2.94 × | difference between reversible and irreversible electroporation areas [1]: largest | electric field threshold ([4]; H-FIRE 10-1-10 waveform, 1 mM): 1641±159 V/cm | electric field threshold ([4]; IRE treatment): 698±103 V/cm | Conductivity ([7]; 1 mM solution): 0.056 ± 0.001 S/m | Osmolarity ([7]; 1 mM solution): 287 mOsm/L | Conductivity ([7]; 5 mM solution): 0.089 S/m | Osmolarity ([7]; 5 mM solution): 291 mOsm/L | visible lesion after H-FIRE ([8]; shorter pulse widths): no visible lesion
